Assay results: patent US20230210846A1, “TREATMENT FOR AMYLOIDOSIS” (Zeno Management,Inc., priority 2020, published 2023)

Columns and labels:
[1] = tested on: OPM-2 cells; assay: Tumor growth study in OPM-2 mouse model; format: in vivo; details: OPM-2 subcutaneous model, 100 mg/kg oral gavage once a day, after 10 days
Protocol: It is understood that compound activity in MM models is predictive of activity in amyloidosis (e.g. AL amyloidosis) models and/or patients.
Mice were inoculated with OPM-2 cells subcutaneously on the right flank with the single cell suspension of 95% viable tumor cells (1×10^7) in 200 μL RPMI-1640 Matrigel mixture (1:1 ratio) without serum for the tumor development. The treatment was started when the mean tumor size reached approximately 200 mm^3, with individual tumor size ranging from 180-220 mm^3. Animals were randomly distributed into treatment groups of 10 animals each and dosed with either vehicle (i.e. “Vehicle A”) or a compound of Formula (A) having the structure
(“Compound (A)”) at 100 mg/kg administered by oral gavage once a day. Tumor volumes were evaluated twice per week to calculate tumor volume over time, and mice were weighed twice per week as a surrogate for signs of toxicity. Tumor growth inhibition (TGI) efficiency was calculated using the following equation TGI=(1−(Td−T0)/(Cd−C0))×100%. Td and Cd are the mean tumor volumes of the treated and control animals, and T0 and C0 are the mean tumor volumes of the treated and control animals at the start of the experiment.

[2] = tested on: KMS-12-BM cells; assay: Tumor growth study in KMS-12-BM mouse model; format: in vivo; details: for tumor growth inhibition (TGI): KMS-12-BM model
Protocol: Tumor volumes were evaluated twice per week to calculate tumor volume over time, and mice were weighed twice per week as a surrogate for signs of toxicity. […] Td and Cd are the mean tumor volumes of the treated and control animals, and T0 and C0 are the mean tumor volumes of the treated and control animals at the start of the experiment.
(§1) Tumor volumes were evaluated twice per week to calculate tumor volume over time, and mice were weighed twice per week as a surrogate for signs of toxicity. Tumor growth inhibition (TGI) was calculated using the following equation TGI=(1−(Td−T0)/(Cd−C0))×100%. Td and Cd are the mean tumor volumes of the treated and control animals, and T0 and C0 are the mean tumor volumes of the treated and control animals at the start of the experiment.
as §1

`CC1(C)CCC(CN2CCN(c3ccc(C(=O)NS(=O)(=O)c4ccc(NC[C@H]5CC[C@](C)(O)CC5)c([N+](=O)[O-])c4)c(Oc4cnc5[nH]ccc5c4)c3)CC2)=C(C23CC(C(F)F)(C2)C3)C1` [Compound (A)] was tested, and the “TGI efficacy (tumor growth inhibition)” value [1] was 46%, the “tumor growth inhibition (TGI)” value ([2]; single agent 50 mg/kg p.o. qd x21, day 14) was 48.7% and the “TGI efficacy (tumor growth inhibition)” value ([2]; KMS-12-BM subcutaneous model, single agent 100 mg/kg p.o. qd, day 14) was 62.8%.

`CC(C)C[C@H](NC(=O)[C@H](Cc1ccccc1)NC(=O)c1cnccn1)B(O)O` [bortezomib, reference compound] was tested, and the “tumor growth inhibition (TGI)” value ([2]; single agent 0.5 mg/kg IP BIW, day 14) was 46.5%.

In the case of `C[C@@H]1C[C@H]2[C@@H]3CCC4=CC(=O)C=C[C@]4(C)[C@@]3(F)[C@@H](O)C[C@]2(C)[C@@]1(O)C(=O)CO` [dexamethasone, reference compound], the “tumor growth inhibition (TGI)” value ([2]; single agent 1 mg/kg IP 5 days on 2 days off, day 14) is reported as 22.5%.
